Columns and labels:
Format in all cases: cell-based
HDAC1 = experiment: qPCR and Western blot of HDAC1 in MB cells; settings: transcript and protein levels, all cell lines tested
MB cells = experiment: Cell viability, proliferation, clonogenic and transwell migration assays
Description: Cell viability and proliferation assays. MB cells transfected with miR-584-5p mimic or target siRNAs were seeded in 96-well plates at a density of 5×10^3 for D556Med and DAOY or 10×10^3 for D425Med and D458Med per well for 72 hours. Cell viability was assessed using CellTiter-Glo (Promega) or alamarBlue (Thermofisher), and proliferation was assessed using CyQuant Direct Cell Proliferation Assay (Thermofisher).
Next, the in vitro results were validated by determining the function of miR-584-5p in MB and by using an in vivo tumor xenograft model to test the efficacy of miR-584-5p-VCR combination therapy. […] In FIG. 3A, cell proliferation was measured by CyQuant Cell Proliferation Assay. The p-values were determined using standard Student t-tests. […] In FIG. 3B, cell proliferation was measured using an IncuCyte phase-only processing module. […] The p-value was calculated using a standard Student t-test. […] The p-value was calculated using a standard Student t-test. […] In FIG. 4F, The p-value was calculated using a standard Student t-test. […] Cell proliferation was measured using an IncuCyte phase-only processing module. ****, p<0.0001. […]
To determine whether miR-584-5p imparts its tumor-suppressing and VCR-sensitizing effect by downregulating HDAC1/eIF4E3 levels in MB, the function of eIF4E3 and HDAC1 in MB was investigated. […] The p-values in FIGS. 6C and D were calculated using a standard Student t-test. […]

[1] = tested on: D425Med and D458Med cells; experiment: Gene expression profiling (Illumina HT-12 v4 BeadChip)
Description: Data are z-transformed. The cutoff criteria for each gene are fold change >2, sample intensity >10, and p-value <0.05. […] To validate the gene expression analysis and target prediction results, it was determined whether miR-584-5p reduced HDAC1/eIF4E3 expression by binding to their 3′-untranslated regions (3′-UTRs). […] Also shown are the portion of the miR-584-5p sequence (SEQ ID NO: 15; UAUGGUU) that binds to the wild-type 3′UTR and seed sequence mutant (SEQ ID NO: 16; […], top panel; and SEQ ID NO: 17; […]; bottom panel). Also shown is miR-584-5p seed sequence mutated sequences. […] Values were normalized to firefly luciferase, which served as an internal control. The p-values were calculated using standard Student t-tests. Error bars represent mean±SEM. […] The p-values were calculated using standard Student t-tests.

miR-584-5p: microRNA mimic; nucleotide sequence UUAUGGUUUGCCUGGGACUGAG (SEQ ID NO: 1); purchased from Thermofisher (chemistry not given here)
expression of HDAC1 (HDAC1): significantly reduced expression
long-term viability and migration elicited by HDAC1/eIF4E3 overexpression (MB cells; D556Med cells cotransfected with eIF4E3/HDAC1 expression vector and miR-584-5p mimic): rescued the increased long-term viability and migration
short-term and long-term viability as well as migration of MB cells (MB cells; vs miR-NC): reduced
TUBB4 expression ([1]; confirmed by real-time PCR): among the highly downregulated genes
FOXO1 levels ([1]; miR-584-5p-treated MB cells): did not change

Source: US20210071180A1, “MICRORNA 584-5P COMPOSITIONS AND METHODS FOR TREATING CANCER” (BOARD OF REGENTS, THE UNIVERSY OF TEXAS SYSTEM, priority 2018, published 2021)
